Results taken from patent US9914722B2, “Compounds for treating spinal muscular atrophy” (PTC Therapeutics Inc., priority 2012, dated 2018).

Experiments:
Smn protein = Smn protein assay (Smn HTRF) in cultured cells; assay type: cell-based, human; details: Homo sapiens, Fibroblast, GM03813 SMA Type 1 patient fibroblasts, 48 hours, HTRF; for maximal fold induction: 7-point concentration data, relative to vehicle, read-out: maximum fold (Fold) increase of Smn protein; for EC (1.5-fold): concentration producing 1.5 times Smn protein vs DMSO vehicle, read-out: EC1.5x for Smn protein expression
Experimental: Smn Protein Assay in Cultured Cells
The Smn HTRF (homogeneous time resolved fluorescence) assay is used to quantify the level of Smn protein in SMA patient fibroblast cells treated with test compounds.
Protocol. Cells are thawed and cultured in DMEM-10% FBS for 72 hours. Cells are trypsinized, counted and re-suspended to a concentration of 25,000 cells/mL in DMEM-10% FBS. The cell suspension is plated at 5,000 cells per well in a 96 well microtiter plate and incubated for 3 to 5 hours. […] Test compounds are serially diluted 3.16-fold in 100% DMSO to generate a 7-point concentration curve. 1 μL of test compound solution is transferred to cell-containing wells and cells are incubated for 48 hours in a cell culture incubator (37° C., 5% CO2, 100% relateive humidity). Triplicate samples are set up for each test compound concentration. After 48 hours, the supernatant is removed from the wells and 25 μL of the RIPA lysis buffer, containing protease inhibitors, is added to the wells and incubated with shaking at room temperature for 1 hour. 25 μL of the diluent is added and then 35 μL of the resulting lysate is transferred to a 384-well plate, where each well contains 5 μL of the antibody solution (1:100 dilution of anti-SMN d2 and anti-SMN kryptate in SMN reconstitution buffer). The plate is centrifuged for 1 minute to bring the solution to the bottom of the wells, then incubated overnight at room temperature. Fluorescence for each well of the plate at 665 nm and 620 nm is measured on an EnVision multilabel plate reader (Perkin-Elmer).
The normalized fluorescence signal is calculated for each sample, Blank and vehicle control well by dividing the signal at 665 nm by the signal at 620 nm. Normalizing the signal accounts for possible fluorescence quenching due to the matrix effect of the lysate. The AF value (a measurement of Smn protein abundance as a percent value) for each sample well is calculated by subtracting the normalized average fluorescence for the Blank control wells from the normalized fluorescence for each sample well, then dividing this difference by the normalized average fluorescence for the Blank control wells and multiplying the resulting value by 100. The ΔF value for each sample well represents the Smn protein abundance from test compound-treated samples. The ΔF value for each sample well is divided by the ΔF value for the vehicle control wells to calculate the fold increase in Smn protein abundance relative to the vehicle control.
For compounds of Formula (I) or a form thereof disclosed herein, Table 9 provides the EC1.5x for Smn protein expression that was obtained from the 7-point concentration data generated for each test compound according to the procedure of Biological Example 7. The term “EC1.5x for Smn protein expression” is defined as that concentration of test compound that is effective in producing 1.5 times the amount of Smn protein in an SMA patient fibroblast cell compared to the amount produced from the DMSO vehicle control. An EC1.5x for Smn protein expression between >3 μM and ≦10 μM is indicated by one star (*), an EC1.5x between >1 μM and ≦3 μM is indicated by two stars (**), an EC1.5x between >0.3 μM and ≦1 μM is indicated by three stars (***) and an EC1.5x≦0.3 μM is indicated by four stars (****).
For compounds of Formula (I) or a form thereof disclosed herein, Table 10 provides the maximum fold (Fold) increase of Smn protein that was obtained from the 7-point concentration data generated for each test compound according to the procedure of Biological Example 7. A maximum fold increase ≦1.2 is indicated by one star (*), a fold increase between >1.2 and ≦1.35 is indicated by two stars (**), a fold increase between >1.35 and ≦1.5 is indicated by three stars (***), a fold increase between >1.5 and ≦1.65 is indicated by four stars (****) and a fold increase >1.65 is indicated by five stars (*****).

[1] = test system: full length SMN2 minigene mRNA containing SMN2 exon 7 (SMN2-A minigene); test: SMN2 minigene mRNA splicing RT-qPCR assay in cultured cells; assay type: cell-based, human; details: Homo sapiens, HEK293-H; HEK293H cells stably transfected with SMN2-A minigene, 24 hours, 7-point concentration curve; concentration giving 1.5-fold SMN2 full length mRNA vs vehicle; read-out: EC1.5x for production of full length SMN2 mRNA
Experimental: SMN2 Minigene mRNA Splicing RT-qPCR Assay in Cultured Cells
The reverse transcription-quantitative PCR-based (RT-qPCR) assay is used to quantify the level of the full length SMN2 minigene mRNA containing SMN2 exon 7 in a HEK293H cell line stably transfected with said minigene and treated with a test compound.
Protocol. HEK293H cells stably transfected with the SMN2-A minigene construct described above (10,000 cells/well) are seeded in 200 μL of cell culture medium (DMEM plus 10% FBS, with 200 μg/mL hygromycin) in 96-well flat-bottom plates and the plate is immediately swirled to ensure proper dispersal of cells, forming an even monolayer of cells. Cells are allowed to attach for at least 4-6 hours. Test compounds are serially diluted 3.16-fold in 100% DMSO to generate a 7-point concentration curve. A solution of test compound (1 μL, 200× in DMSO) is added to each cell-containing well and the plate is incubated for 24 hours in a cell culture incubator (37° C., 5% CO2, 100% relative humidity). Two replicates are prepared for each test compound concentration. The cells are then lysed in Cells-To-Ct lysis buffer and the lysate is stored at −80° C.
Primer SMN Forward A (SEQ ID NO. 1) hybridizes to a nucleotide sequence in exon 7 (nucleotide 22 to nucleotide 40), primer SMN Reverse A (SEQ ID NO. 2) hybridizes to a nucleotide sequence in the coding sequence of Firefly luciferase, SMN Probe A (SEQ ID NO. 3) hybridizes to a nucleotide sequence in exon 7 (nucleotide 50 to nucleotide 54) and exon 8 (nucleotide 1 to nucleotide 21). The combination of these three oligonucleotides detects only SMN1 or SMN2 minigenes (RT-qPCR) and will not detect endogenous SMN1 or SMN2 genes.
The SMN forward and reverse primers are used at final concentrations of 0.4 μM. The SMN probe is used at a final concentration of 0.15 μM. The GAPDH primers are used at final concentrations of 0.2 μM and the probe at 0.15 μM.
The SMN2-minigene GAPDH mix (15 μL total volume) is prepared by combining 7.5 μL of 2×RT-PCR buffer, 0.4 μL of 25×RT-PCR enzyme mix, 0.75 μL of 20×GAPDH primer-probe mix, 4.0075 μL of water, 2 μL of 10-fold diluted cell lysate, 0.06 μL of 100 μM SMN forward primer, 0.06 μL of 100 μM SMN reverse primer, and 0.225 μL of 100 μM SMN probe.
PCR is carried out at the following temperatures for the indicated time: Step 1: 48° C. (15 min); Step 2: 95° C. (10 min); Step 3: 95° C. (15 sec); Step 4: 60° C. (1 min); then repeat Steps 3 and 4 for a total of 40 cycles.
Each reaction mixture contains both SMN2-A minigene and GAPDH primers/probe sets (multiplex design), allowing simultaneous measurement of the levels of two transcripts.
Two SMN spliced products are generated from the SMN2 minigene. The first spliced product containing exon 7, corresponding to SMN2 full length mRNA, is referred to herein using the term “SMN2 minigene FL.” The second spliced product lacking exon 7 is referred to herein using the term “SMN2 minigene Δ7.”
The increase of SMN2 minigene FL mRNA relative to that in cells treated with vehicle control is determined from real-time PCR data using a modified ΔΔCt method (as described in Livak and Schmittgen, Methods, 2001, 25:402-8). The amplification efficiency (E) is calculated from the slope of the amplification curve for SMN2 minigene FL and GAPDH mRNA individually. The abundance of SMN2 minigene FL and GAPDH mRNA are then calculated as (1+E)^−Ct, where Ct is the threshold value for each amplicon. The abundance of SMN2 minigene FL is normalized to GAPDH abundance. The normalized SMN2 minigene FL abundance from test compound-treated samples is then divided by normalized SMN2 minigene FL abundance from vehicle-treated cells to determine the level of SMN2 FL mRNA relative to vehicle control. […]

Row | melting point [°C] | SMILES | maximal fold induction (Smn protein) | EC (1.5-fold) [1] [µM] | EC (1.5-fold) (Smn protein) [µM]
1 | 198 to 200 | COc1ccc(-c2cc(=O)c3cc(N4CCN[C@H](C)C4)ccc3o2)cn1 [Cpd 57, 2-(6-methoxypyridin-3-yl)-6-[(3R)-3-methylpiperazin-1-yl]-4H-chromen-4-one] | 1.2 to 1.35 | 0.3 to 1 | 
2 | 180 to 190 | O=c1cc(-c2cc(F)cc(F)c2)oc2ccc(N3CCNCC3)cc12 [Cpd 79, 2-(3,5-difluorophenyl)-6-(piperazin-1-yl)-4H-chromen-4-one] | 1.35 to 1.5 | ≤ 0.1 | 3 to 10
3 | 162 to 164 | O=c1cc(-c2cccnc2)oc2ccc(N3CCCNCC3)cc12 [Cpd 6, 6-(1,4-diazepan-1-yl)-2-(pyridin-3-yl)-4H-chromen-4-one] | ≤ 1.2 | 3 to 30 | 
4 | 148 to 150 | CC(C)N1CCN(c2ccc3oc(-c4cccnc4)cc(=O)c3c2)CC1 [Cpd 4, 6-[4-(propan-2-yl)piperazin-1-yl]-2-(pyridin-3-yl)-4H-chromen-4-one] | ≤ 1.2 | 3 to 30 | 
5 | 150 to 152 | C[C@H]1CN(c2ccc3oc(-c4cccc(C(F)(F)F)c4)cc(=O)c3c2)CCN1 [Cpd 78, 6-[(3S)-3-methylpiperazin-1-yl]-2-[3-(trifluoromethyl)phenyl]-4H-chromen-4-one] | > 1.65 | ≤ 0.1 | ≤ 0.3
6 | 198 to 200 | O=c1cc(-c2cn3ccccc3n2)oc2ccc(N3CCCNCC3)cc12 [Cpd 18, 6-(1,4-diazepan-1-yl)-2-(imidazo[1,2-a]pyridin-2-yl)-4H-chromen-4-one] | > 1.65 | 3 to 30 | 3 to 10
7 | 166 to 168 | C[C@@H]1CN(c2ccc3oc(-c4ccccn4)cc(=O)c3c2)C[C@H](C)N1 [Cpd 13, 6-[(3R,5S)-3,5-dimethylpiperazin-1-yl]-2-(pyridin-2-yl)-4H-chromen-4-one] | 1.35 to 1.5 | 1 to 3 | 
8 | 215 to 220 | CN1CCN(c2ccc3oc(-c4nc5ccccc5s4)cc(=O)c3c2)CC1 [Cpd 35, 2-(1,3-benzothiazol-2-yl)-6-(4-methylpiperazin-1-yl)-4H-chromen-4-one] | 1.2 to 1.35 | 1 to 3 | 
9 | 148 to 150 | C[C@@H]1CN(c2ccc3oc(-c4cccnc4)cc(=O)c3c2)C[C@H](C)N1 [Cpd 9, 6-[(3R,5S)-3,5-dimethylpiperazin-1-yl]-2-(pyridin-3-yl)-4H-chromen-4-one] | 1.5 to 1.65 | 1 to 3 | 3 to 10
10 | 178 to 180 | COc1ccc(-c2cc(=O)c3cc(N4CCNCC4)ccc3o2)cc1F [Cpd 37, 2-(3-fluoro-4-methoxyphenyl)-6-(piperazin-1-yl)-4H-chromen-4-one] | 1.35 to 1.5 | 0.1 to 0.3 | 1 to 3
11 | 184 to 186 | COc1ccc(-c2cc(=O)c3cc(N4CCN(C)CC4)ccc3o2)cc1OC [Cpd 21, 2-(3,4-dimethoxyphenyl)-6-(4-methylpiperazin-1-yl)-4H-chromen-4-one] | > 1.65 | 0.3 to 1 | 1 to 3
12 | 180 to 182 | COc1ccc(-c2cc(=O)c3cc(N4C[C@@H](C)N[C@@H](C)C4)ccc3o2)cc1F [Cpd 39, 6-[(3R,5S)-3,5-dimethylpiperazin-1-yl]-2-(3-fluoro-4-methoxyphenyl)-4H-chromen-4-one] | 1.5 to 1.65 | 0.1 to 0.3 | 3 to 10
13 | 212 to 216 | Cc1cn2cc(-c3cc(=O)c4cc(N5CCN[C@@H](C)C5)ccc4o3)nc2cn1 [Cpd 73, 2-(6-methylimidazo[1,2-a]pyrazin-2-yl)-6-[(3S)-3-methylpiperazin-1-yl]-4H-chromen-4-one] | > 1.65 | ≤ 0.1 | ≤ 0.3

Row | SMILES | melting point [°C] | maximal fold induction (Smn protein) | EC (1.5-fold) [1] [µM] | EC (1.5-fold) (Smn protein) [µM]
14 | C[C@@H]1CN(c2ccc3oc(-c4cccnc4)cc(=O)c3c2)CCN1 [Cpd 11, 6-[(3R)-3-methylpiperazin-1-yl]-2-(pyridin-3-yl)-4H-chromen-4-one] | 148 to 150 | 1.35 to 1.5 | 0.3 to 1 | 3 to 10
